Data: ChEMBL document CHEMBL1781956, “Design, synthesis and insulin-sensitizing activity of indomethacin and diclofenac derivatives” (Bioorg Med Chem Lett, 2009)
The source made the active and inactive calls. The rule behind the calls is not given here.

Legend:
Format in all cases: functional
3T3-L1 [1] = assay: Insulin sensitizing activity in mouse 3T3L1 cells assessed as triglyceride accumulation at 1 uM by insulin-regulated cell differentiation assay relative to rosiglitazone
3T3-L1 [2] = assay: Insulin sensitizing activity in mouse 3T3L1 cells assessed as triglyceride accumulation by insulin-regulated cell differentiation assay
[3] = biological target: T1, Peroxisome proliferator-activated receptor gamma (Homo sapiens) (UniProt P37231); assay: Agonist activity at human PPARgamma in human U2OS cells by cell based transactivation assay relative to rosiglitazone
T1 sequence (whole entry): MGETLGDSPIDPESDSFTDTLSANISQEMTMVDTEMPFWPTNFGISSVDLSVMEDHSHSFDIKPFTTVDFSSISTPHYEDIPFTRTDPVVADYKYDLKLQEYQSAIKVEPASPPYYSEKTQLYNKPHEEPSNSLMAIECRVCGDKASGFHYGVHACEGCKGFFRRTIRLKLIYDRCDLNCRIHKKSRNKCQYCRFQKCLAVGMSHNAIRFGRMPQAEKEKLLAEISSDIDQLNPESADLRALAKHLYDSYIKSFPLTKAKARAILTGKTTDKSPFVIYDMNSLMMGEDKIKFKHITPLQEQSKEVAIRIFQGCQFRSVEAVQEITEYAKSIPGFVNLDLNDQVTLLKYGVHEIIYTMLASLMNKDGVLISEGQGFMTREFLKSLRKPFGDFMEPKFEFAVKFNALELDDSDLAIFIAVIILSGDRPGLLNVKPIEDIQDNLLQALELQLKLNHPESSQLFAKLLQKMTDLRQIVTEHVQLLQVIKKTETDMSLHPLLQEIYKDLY

[4] = biological target: T2, Peroxisome proliferator-activated receptor gamma (Homo sapiens, UniProt P37231); assay: Agonist activity at human PPARgamma in human U2OS cells by cell based transactivation assay
T2 sequence (P37231 whole entry): T1 sequence (whole entry)

Emax [3] | EC50 [4] [µM] | SMILES | Activity (3T3-L1 [1]) [%] | EC30 (3T3-L1 [2]) | EC50 ([4]; u2os)
– | – | COC(=O)Cc1c(C)n(C(=O)c2ccc(Cl)cc2)c2ccc(OCCN3CCOCC3)cc12 | 42 | – | –
– | – | CC(C)=CCC/C(C)=C/CC/C(C)=C/CCCOc1ccc2c(c1)c(CC(=O)O)c(C)n2C(=O)c1ccc(Cl)cc1 | 74 | 6.92 ×10⁻⁷ M | –
– | – | COC(=O)Cc1c(C)n(C(=O)c2ccc(Cl)cc2)c2ccc(OCCN3COc4ccccc4C3=O)cc12 | 47 | – | –
35% | – | O=C(O)Cc1ccc(OCc2ccccc2)cc1Nc1c(Cl)cccc1Cl | 98 | 2.51 ×10⁻⁷ M | –
74% | 0.62 | COC(=O)Cc1c(C)n(C(=O)c2ccc(Cl)cc2)c2ccc(OCCc3nc(-c4ccccc4)oc3C)cc12 | 80 | 2.75 ×10⁻⁷ M | –
– | – | Cc1c(CC(=O)O)c2cc(OCCN3CCOCC3)ccc2n1C(=O)c1ccc(Cl)cc1 | 36 | – | –
– | – | Cc1c(CC(=O)O)c2cc(OCCN3CCCCC3)ccc2n1C(=O)c1ccc(Cl)cc1 | 30 | – | –
– | – | COC(=O)Cc1c(C)n(C(=O)c2ccc(Cl)cc2)c2ccc(OCCN3CCCCC3)cc12 | 33 | – | –
– | – | COc1cccc(-c2nc(CCOc3ccc4c(c3)c(CC(=O)O)c(C)n4C(=O)c3ccc(Cl)cc3)c(C)o2)c1 | 76 | 3.75 ×10⁻⁷ M | –
– | – | COC(=O)Cc1c(C)n(C(=O)c2ccc(Cl)cc2)c2ccc(OCCc3nc(-c4cccc(OC)c4)oc3C)cc12 | 85 | 3.16 ×10⁻⁷ M | –
– | – | CCc1ccc(CCOc2ccc3c(c2)c(CC(=O)OC)c(C)n3C(=O)c2ccc(Cl)cc2)nc1 | 50 | 1.7 ×10⁻⁶ M | –
– | – | CN(CCOc1ccc(CC2SC(=O)NC2=O)cc1)c1ccccn1 (centres undefined) [ROSIGLITAZONE] | 100 | 1.05 ×10⁻⁷ M | –
– | – | Cc1c(CC(=O)O)c2cc(OCCN3COc4ccccc4C3=O)ccc2n1C(=O)c1ccc(Cl)cc1 | 41 | – | –
– | – | CCc1ccc(CCOc2ccc3c(c2)c(CC(=O)O)c(C)n3C(=O)c2ccc(Cl)cc2)nc1 | 42 | 5.89 ×10⁻⁶ M | –
– | – | COC(=O)Cc1c(C)n(C(=O)c2ccc(Cl)cc2)c2ccc(OCCC/C=C(\C)CC/C=C(\C)CCC=C(C)C)cc12 | 81 | 2.88 ×10⁻⁷ M | –
– | – | Cc1oc(-c2ccc(Cl)cc2)nc1CCOc1ccc2c(c1)c(CC(=O)O)c(C)n2C(=O)c1ccc(Cl)cc1 | 38 | – | –
134% | 0.04 | Cc1oc(-c2ccc(-c3ccccc3)cc2)nc1CCOc1ccc2c(c1)c(CC(=O)O)c(C)n2C(=O)c1ccc(Cl)cc1 | 129 | 3.31 ×10⁻⁸ M | –
– | – | COC(=O)Cc1c(C)n(C(=O)c2ccc(Cl)cc2)c2ccc(OCCc3nc(-c4ccc(Cl)cc4)oc3C)cc12 | 57 | 2 ×10⁻⁶ M | –
79% | – | Cc1oc(-c2ccccc2)nc1CCOc1ccc2c(c1)c(CC(=O)O)c(C)n2C(=O)c1ccc(Cl)cc1 | 36 | 6.17 ×10⁻⁶ M | –
141% | 0.02 | COC(=O)Cc1c(C)n(C(=O)c2ccc(Cl)cc2)c2ccc(OCCc3nc(-c4ccc(-c5ccccc5)cc4)oc3C)cc12 | 138 | 1.23 ×10⁻⁸ M | –

SMILES | Emax [3] | EC50 [4] [µM] | Activity (3T3-L1 [1]) [%] | EC30 (3T3-L1 [2]) | EC50 ([4]; u2os)
Cc1c(CC(=O)O)c2cc(OCc3ccccc3)ccc2n1C(=O)c1ccc(Cl)cc1 | inactive | – | 126 | 9.51 ×10⁻⁹ M | Not Active
COC(=O)Cc1c(C)n(C(=O)c2ccc(Cl)cc2)c2ccc(OCc3ccccc3)cc12 | inactive | – | 134 | 6.56 ×10⁻⁹ M | Not Active
